Experimental data taken from patent publication US20110021565A1, “PIPERIDINE DERIVATIVES AS NK3 ANTAGONISTS” (priority 2007, published 2011).
Read-outs that look alike come from different tables or passages of the source.

Target: T1, recombinant human NK3 receptor (Homo sapiens, UniProt P29371)
T1 construct: expressed in transfected cells; host or cells: HEK293 cells, transient expression; membrane preparation
T1 sequence (P29371 1-465): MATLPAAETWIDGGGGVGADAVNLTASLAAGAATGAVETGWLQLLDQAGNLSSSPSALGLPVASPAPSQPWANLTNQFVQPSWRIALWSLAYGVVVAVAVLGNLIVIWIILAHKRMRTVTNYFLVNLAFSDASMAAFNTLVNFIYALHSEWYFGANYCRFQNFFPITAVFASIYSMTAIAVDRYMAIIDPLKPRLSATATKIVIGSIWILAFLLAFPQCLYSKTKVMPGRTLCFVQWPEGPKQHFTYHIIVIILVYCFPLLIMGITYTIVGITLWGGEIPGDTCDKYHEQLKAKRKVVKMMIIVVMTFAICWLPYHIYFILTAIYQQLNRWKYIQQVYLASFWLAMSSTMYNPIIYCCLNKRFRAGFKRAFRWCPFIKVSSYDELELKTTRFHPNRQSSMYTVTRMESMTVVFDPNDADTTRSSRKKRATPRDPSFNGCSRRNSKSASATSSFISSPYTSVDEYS
Experiment: [3H]SR142801 competition binding assay
Method in brief: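 Ki derived by Cheng-Prusoff from Hill-fitted IC50 curves, duplicates, 10 μM SB222200 defining nonspecific binding. Radioligand used at KD concentration against compound at 0.0003-10 μM; transiently transfected HEK293 membranes, 5 μg/well, 75 min room temperature, Tris-HCl/MnCl2/phosphoramidon/BSA pH 7.4. Filter-bound counts read by scintillation.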

[1] = [3H]SR142801, membranes of HEK293 cells transiently expressing recombinant human NK3 receptor, read-out: hNK3 Ki
[2] = representative compounds, [3H]SR142801, HEK293 membranes, human NK3 receptor, read-out: Ki NK3 h

Compound | Ki [1] | Ki [2]
CN(Cc1ccc(F)c(C(F)(F)F)c1)C(=O)C(CCN1CCC(NS(C)(=O)=O)CC1)c1ccc(Cl)c(Cl)c1 (stereo not shown) [Example 44, 2-(3,4-Dichloro-phenyl)-N-(4-fluoro-3-trifluoromethyl-benzyl)-4-(4-methanesulfonyl-amino-piperidin-1-yl)-N-methyl-butyramide] | 132 nM | –
CN(Cc1ccc(Cl)c(Cl)c1)C(=O)C(C)(CCN1CCC(N(C)S(C)(=O)=O)CC1)c1ccc(Cl)c(Cl)c1 (stereo not shown) [Example 48, N-(3,4-Dichloro-benzyl)-2-(3,4-dichloro-phenyl)-4-[4-(methanesulfonyl-methyl-amino)-piperidin-1-yl]-2,N-dimethyl-butyramide] | 3.6 nM | 3.6 nM
CN(C1CCN(CCC(C)(C(=O)NC(c2ccccc2)C(F)(F)F)c2ccc(Cl)c(Cl)c2)CC1)S(C)(=O)=O (stereo not shown) [Example 51, 2-(3,4-Dichloro-phenyl)-4-[4-(methanesulfonyl-methyl-amino)-piperidin-1-yl]-2-methyl-N-(2,2,2-trifluoro-1-phenyl-ethyl)-butyramide] | 18.7 nM | –
CN(C1CCN(CCC(C)(C(=O)NCc2ccccc2)c2ccc(Cl)c(Cl)c2)CC1)S(C)(=O)=O (stereo not shown) [Example 52, N-Benzyl-2-(3,4-dichloro-phenyl)-4-[4-(methanesulfonyl-methyl-amino)-piperidin-1-yl]-2-methyl-butyramide] | 64.8 nM | –
CN(Cc1ccc(Cl)c(Cl)c1)C(=O)C(F)(CCN1CCC(N(C)S(C)(=O)=O)CC1)c1ccc(Cl)c(Cl)c1 (stereo not shown) [Example 56, N-(3,4-Dichloro-benzyl)-2-(3,4-dichloro-phenyl)-2-fluoro-4-[4-(methanesulfonyl-methyl-amino)-piperidin-1-yl]-N-methyl-butyramide] | 22.8 nM | –
CN(Cc1ccc(C(F)(F)F)c(F)c1)C(=O)C(C)(CCN1CCC(N(C2CC2)S(C)(=O)=O)CC1)c1ccc(Cl)c(Cl)c1 (stereo not shown) [Example 57, 4-[4-(Cyclopropyl-methanesulfonyl-amino)-piperidin-1-yl]-2-(3,4-dichloro-phenyl)-N-(3-fluoro-4-trifluoromethyl-benzyl)-2,N-dimethyl-butyramide] | 5.9 nM | 5.9 nM
CN(Cc1ccc(Cl)c(C(F)(F)F)c1)C(=O)C(C)(CCN1CCC(N(C2CC2)S(C)(=O)=O)CC1)c1ccc(Cl)c(Cl)c1 (stereo not shown) [Example 58, N-(4-Chloro-3-trifluoromethyl-benzyl)-4-[4-(cyclopropyl-methanesulfonyl-amino)-piperidin-1-yl]-2-(3,4-dichloro-phenyl)-2,N-dimethyl-butyramide] | 3.6 nM | 3.6 nM
CN(Cc1ccc(F)c(C(F)(F)F)c1)C(=O)C(C)(CCN1CCC(N(C2CC2)S(C)(=O)=O)CC1)c1ccc(Cl)c(Cl)c1 (stereo not shown) [Example 59, 4-[4-(Cyclopropyl-methanesulfonyl-amino)-piperidin-1-yl]-2-(3,4-dichloro-phenyl)-N-(4-fluoro-3-trifluoromethyl-benzyl)-2,N-dimethyl-butyramide] | 4.3 nM | 4.3 nM
CN(Cc1ccc(Cl)c(Cl)c1)C(=O)C(C)(CCN1CCC(N(C2CC2)S(C)(=O)=O)CC1)c1ccc(Cl)c(Cl)c1 (stereo not shown) [Example 60, 4-[4-(Cyclopropyl-methanesulfonyl-amino)-piperidin-1-yl]-N-(3,4-dichloro-benzyl)-2-(3,4-dichloro-phenyl)-2,N-dimethyl-butyramide] | 2.6 nM | 2.6 nM
CN(Cc1ccc(C(F)(F)F)c(F)c1)C(=O)C(F)(CCN1CCC(NS(C)(=O)=O)CC1)c1ccc(Cl)c(Cl)c1 (stereo not shown) [Example 61, 2-(3,4-Dichloro-phenyl)-2-fluoro-N-(3-fluoro-4-trifluoromethyl-benzyl)-4-(4-methanesulfonyl-amino-piperidin-1-yl)-N-methyl-butyramide] | 80 nM | –
CN(Cc1ccc(Cl)cc1)C(=O)C(F)(CCN1CCC(NS(C)(=O)=O)CC1)c1ccc(Cl)c(Cl)c1 (stereo not shown) [Example 62, N-(4-Chloro-benzyl)-2-(3,4-dichloro-phenyl)-2-fluoro-4-(4-methanesulfonyl-amino-piperidin-1-yl)-N-methyl-butyramide] | 105 nM | –
CN(Cc1ccc(Cl)c(C(F)(F)F)c1)C(=O)C(F)(CCN1CCC(NS(C)(=O)=O)CC1)c1ccc(Cl)c(Cl)c1 (stereo not shown) [Example 63, N-(4-Chloro-3-trifluoromethyl-benzyl)-2-(3,4-dichloro-phenyl)-2-fluoro-4-(4-methanesulfonyl-amino-piperidin-1-yl)-N-methyl-butyramide] | 117 nM | –
CN(Cc1cccc(Cl)c1)C(=O)C(F)(CCN1CCC(NS(C)(=O)=O)CC1)c1ccc(Cl)c(Cl)c1 (stereo not shown) [Example 65, N-(3-Chlorobenzyl)-2-(3,4-dichloro-phenyl)-2-fluoro-4-(4-methanesulfonyl-amino-piperidin-1-yl)-N-methyl-butyramide] | 307 nM | –

Other lines, results leading:

Ki [1] | Ki [2] | Compound
8.5 nM | 8.5 nM | CN(Cc1ccc(C(F)(F)F)c(F)c1)C(=O)C(C)(CCN1CCC(N(C)S(C)(=O)=O)CC1)c1ccc(Cl)c(Cl)c1 (stereo not shown) [Example 45, 2-(3,4-Dichloro-phenyl)-N-(3-fluoro-4-trifluoromethyl-benzyl)-4-[4-(methanesulfonyl-methyl-amino)-piperidin-1-yl]-2,N-dimethyl-butyramide]
2.4 nM | 2.4 nM | CN(Cc1ccc(Cl)c(C(F)(F)F)c1)C(=O)C(C)(CCN1CCC(N(C)S(C)(=O)=O)CC1)c1ccc(Cl)c(Cl)c1 (stereo not shown) [Example 46, N-(4-Chloro-3-trifluoromethyl-benzyl)-2-(3,4-dichloro-phenyl)-4-[4-(methanesulfonyl-methyl-amino)-piperidin-1-yl]-2,N-dimethyl-butyramide]
2.1 nM | 2.1 nM | CN(Cc1ccc(F)c(C(F)(F)F)c1)C(=O)C(C)(CCN1CCC(N(C)S(C)(=O)=O)CC1)c1ccc(Cl)c(Cl)c1 (stereo not shown) [Example 47, 2-(3,4-Dichloro-phenyl)-N-(4-fluoro-3-trifluoromethyl-benzyl)-4-[4-(methanesulfonyl-methyl-amino)-piperidin-1-yl]-2,N-dimethyl-butyramide]
18.3 nM | – | CN(Cc1ccc(C(F)(F)F)c(F)c1)C(=O)C(F)(CCN1CCC(N(C)S(C)(=O)=O)CC1)c1ccc(Cl)c(Cl)c1 (stereo not shown) [Example 53, 2-(3,4-Dichloro-phenyl)-2-fluoro-N-(3-fluoro-4-trifluoromethyl-benzyl)-4-[4-(methanesulfonyl-methyl-amino)-piperidin-1-yl]-N-methyl-butyramide]
24.5 nM | – | CN(Cc1ccc(Cl)c(C(F)(F)F)c1)C(=O)C(F)(CCN1CCC(N(C)S(C)(=O)=O)CC1)c1ccc(Cl)c(Cl)c1 (stereo not shown) [Example 54, N-(4-Chloro-3-trifluoromethyl-benzyl)-2-(3,4-dichloro-phenyl)-2-fluoro-4-[4-(methanesulfonyl-methyl-amino)-piperidin-1-yl]-N-methyl-butyramide]
23.4 nM | – | CN(Cc1ccc(F)c(C(F)(F)F)c1)C(=O)C(F)(CCN1CCC(N(C)S(C)(=O)=O)CC1)c1ccc(Cl)c(Cl)c1 (stereo not shown) [Example 55, 2-(3,4-Dichloro-phenyl)-2-fluoro-N-(4-fluoro-3-trifluoromethyl-benzyl)-4-[4-(methanesulfonyl-methyl-amino)-piperidin-1-yl]-N-methyl-butyramide]
122 nM | – | CN(Cc1ccc(F)c(C(F)(F)F)c1)C(=O)C(F)(CCN1CCC(NS(C)(=O)=O)CC1)c1ccc(Cl)c(Cl)c1 (stereo not shown) [Example 64, 2-(3,4-Dichloro-phenyl)-2-fluoro-N-(4-fluoro-3-trifluoromethyl-benzyl)-4-(4-methanesulfonyl-amino-piperidin-1-yl)-N-methyl-butyramide]
